Experimental data published in ChEMBL document CHEMBL2057083, “Development of new carbon-11 labelled radiotracers for imaging GABAA- and GABAB-benzodiazepine receptors” (Bioorg Med Chem, 2012).

Legend:
Type in all cases: ADME, organism-based
Rattus norvegicus [1] = experiment: Biodistribution in Sprague-Dawley rat cortex (rest) pretreated with unlabeled compound at 5 mg/kg, ip administered 30 mins before labeled compound treatment at 37 MBq, iv measured 15 mins post injection (0.36 +/- 0.02 %ID/g); parameters: dose 5 mg/kg; conditions: in vivo, 0.25 h
[2] = Biodistribution in Sprague-Dawley rat cerebellum pretreated with unlabeled compound at 10 mg/kg, ip administered 30 mins before labeled compound treatment at 37 MBq, iv measured 15 mins post injection (reference value: 0.26 %ID/g); parameters: dose 10 mg/kg; conditions: read-out: Drug uptake
Blood [3] = experiment: Biodistribution in Sprague-Dawley rat blood at 37 MBq, iv measured 30 mins post injection; conditions: in vivo, 0.5 h
[4] = Biodistribution in Sprague-Dawley rat cortex (rest) pretreated with unlabeled compound at 0.1 mg/kg, ip administered 30 mins before labeled compound treatment at 37 MBq, iv measured 15 mins post injection (0.36 +/- 0.02 %ID/g); parameters: dose 0.1 mg/kg; conditions: read-out: Drug uptake
Cerebellum [5] = experiment: Biodistribution in Sprague-Dawley rat cerebellum at 37 MBq, iv measured 30 mins post injection; conditions: in vivo, 0.5 h
Hippocampus [6] = experiment: Biodistribution in Sprague-Dawley rat hippocampus at 37 MBq, iv measured 30 mins post injection; conditions: in vivo, 0.5 h
Brain [7] = experiment: Biodistribution in Sprague-Dawley rat rest of brain at 37 MBq, iv measured 30 mins post injection; conditions: in vivo, 0.5 h
Brain [8] = experiment: Biodistribution in Sprague-Dawley rat rest of brain at 37 MBq, iv measured 15 mins post injection; conditions: in vivo, 0.25 h
[9] = Biodistribution in Sprague-Dawley rat cerebellum pretreated with unlabeled compound at 5 mg/kg, ip administered 30 mins before labeled compound treatment at 37 MBq, iv measured 15 mins post injection (reference value: 0.26 %ID/g); parameters: dose 5 mg/kg; conditions: read-out: Drug uptake
[10] = Biodistribution in Sprague-Dawley rat cerebellum pretreated with unlabeled compound at 0.1 mg/kg, ip administered 30 mins before labeled compound treatment at 37 MBq, iv measured 15 mins post injection (reference value: 0.26 %ID/g); parameters: dose 0.1 mg/kg; conditions: read-out: Drug uptake
Striatum [11] = experiment: Biodistribution in Sprague-Dawley rat striatum at 37 MBq, iv measured 30 mins post injection; conditions: in vivo, 0.5 h
Plasma = experiment: Drug metabolism in Sprague-Dawley rat plasma at 37 MBq, iv measured after 5 mins; conditions: in vivo
[12] = Biodistribution in Sprague-Dawley rat rest of brain pretreated with unlabeled compound at 0.1 mg/kg, ip administered 30 mins before labeled compound treatment at 37 MBq, iv measured 15 mins post injection (0.20 +/- 0.01 %ID/g); parameters: dose 0.1 mg/kg; conditions: read-out: Drug uptake
Blood [13] = experiment: Biodistribution in Sprague-Dawley rat blood at 37 MBq, iv measured 60 mins post injection; conditions: in vivo, 1 h
[14] = Biodistribution in Sprague-Dawley rat hippocampus pretreated with unlabeled compound at 10 mg/kg, ip administered 30 mins before labeled compound treatment at 37 MBq, iv measured 15 mins post injection (reference value: 0.22 +/- 0.22 %ID/g); parameters: dose 10 mg/kg; conditions: read-out: Drug uptake
Rattus norvegicus [15] = experiment: Biodistribution in Sprague-Dawley rat cortex (rest) at 37 MBq, iv measured 60 mins post injection; conditions: in vivo, 1 h
[16] = Biodistribution in Sprague-Dawley rat hippocampus pretreated with unlabeled compound at 5 mg/kg, ip administered 30 mins before labeled compound treatment at 37 MBq, iv measured 15 mins post injection (reference value: 0.22 +/- 0.22 %ID/g); parameters: dose 5 mg/kg; conditions: read-out: Drug uptake
[17] = Biodistribution in Sprague-Dawley rat blood pretreated with unlabeled compound at 10 mg/kg, ip administered 30 mins before labeled compound treatment at 37 MBq, iv measured 15 mins post injection (0.11 +/- 0.01 %ID/g); parameters: dose 10 mg/kg; conditions: read-out: Drug uptake
Hippocampus [18] = experiment: Biodistribution in Sprague-Dawley rat hippocampus at 37 MBq, iv measured 5 mins post injection; conditions: in vivo
Striatum [19] = experiment: Biodistribution in Sprague-Dawley rat striatum pretreated with unlabeled compound at 0.1 mg/kg, ip administered 30 mins before labeled compound treatment at 37 MBq, iv measured 15 mins post injection (reference value: 0.13 +/- 0.22 %ID/g); parameters: dose 0.1 mg/kg, route intravenous; conditions: in vivo, 0.25 h
Brain [20] = experiment: Biodistribution in Sprague-Dawley rat rest of brain pretreated with unlabeled compound at 10 mg/kg, ip administered 30 mins before labeled compound treatment at 37 MBq, iv measured 15 mins post injection (0.20 +/- 0.01 %ID/g); parameters: dose 10 mg/kg; conditions: in vivo, 0.25 h
Cerebellum [21] = experiment: Biodistribution in Sprague-Dawley rat cerebellum at 37 MBq, iv measured 60 mins post injection; conditions: in vivo, 1 h
[22] = Metabolic stability of the compound in Sprague-Dawley rat brain assessed as compound remaining at 37 MBq, iv measured after 15 mins; conditions: read-out: Stability
Brain [23] = experiment: Biodistribution in Sprague-Dawley rat rest of brain pretreated with unlabeled compound at 5 mg/kg, ip administered 30 mins before labeled compound treatment at 37 MBq, iv measured 15 mins post injection (0.20 +/- 0.01 %ID/g); parameters: dose 5 mg/kg, route intravenous; conditions: in vivo, 0.25 h
Striatum [24] = experiment: Biodistribution in Sprague-Dawley rat striatum at 37 MBq, iv measured 60 mins post injection; conditions: in vivo, 1 h
Blood [25] = experiment: Biodistribution in Sprague-Dawley rat blood at 37 MBq, iv measured 5 mins post injection; conditions: in vivo
Hippocampus [26] = experiment: Biodistribution in Sprague-Dawley rat hippocampus at 37 MBq, iv measured 60 mins post injection; conditions: in vivo, 1 h
Hippocampus [27] = experiment: Biodistribution in Sprague-Dawley rat hippocampus at 37 MBq, iv measured 15 mins post injection; conditions: in vivo, 0.25 h
Brain [28] = experiment: Biodistribution in Sprague-Dawley rat rest of brain at 37 MBq, iv measured 60 mins post injection; conditions: in vivo, 1 h
Rattus norvegicus [29] = experiment: Biodistribution in Sprague-Dawley rat cortex (rest) at 37 MBq, iv measured 5 mins post injection; conditions: in vivo
Rattus norvegicus [30] = experiment: Biodistribution in Sprague-Dawley rat cortex (front) at 37 MBq, iv measured 15 mins post injection; conditions: in vivo, 0.25 h
Rattus norvegicus [31] = experiment: Biodistribution in Sprague-Dawley rat cortex (front) at 37 MBq, iv measured 30 mins post injection; conditions: in vivo, 0.5 h
Rattus norvegicus [32] = experiment: Biodistribution in Sprague-Dawley rat cortex (rest) pretreated with unlabeled compound at 10 mg/kg, ip administered 30 mins before labeled compound treatment at 37 MBq, iv measured 15 mins post injection (0.36 +/- 0.02 %ID/g); parameters: dose 10 mg/kg; conditions: in vivo, 0.25 h
Blood [33] = experiment: Biodistribution in Sprague-Dawley rat blood pretreated with unlabeled compound at 0.1 mg/kg, ip administered 30 mins before labeled compound treatment at 37 MBq, iv measured 15 mins post injection (0.11 +/- 0.01 %ID/g); parameters: dose 0.1 mg/kg; conditions: in vivo, 0.25 h
Rattus norvegicus [34] = experiment: Biodistribution in Sprague-Dawley rat cortex (rest) at 37 MBq, iv measured 15 mins post injection; conditions: in vivo, 0.25 h
Cerebellum [35] = experiment: Biodistribution in Sprague-Dawley rat cerebellum at 37 MBq, iv measured 15 mins post injection; conditions: in vivo, 0.25 h
[36] = Biodistribution in Sprague-Dawley rat striatum pretreated with unlabeled compound at 5 mg/kg, ip administered 30 mins before labeled compound treatment at 37 MBq, iv measured 15 mins post injection (reference value: 0.13 +/- 0.22 %ID/g); parameters: dose 5 mg/kg, route intravenous; conditions: read-out: Drug uptake
Rattus norvegicus [37] = experiment: Biodistribution in Sprague-Dawley rat cortex (front) pretreated with unlabeled compound at 0.1 mg/kg, ip administered 30 mins before labeled compound treatment at 37 MBq, iv measured 15 mins post infection (reference value: 0.42 +/- 0.04%ID/g); parameters: dose 0.1 mg/kg; conditions: in vivo, 0.25 h
Striatum [38] = experiment: Biodistribution in Sprague-Dawley rat striatum pretreated with unlabeled compound at 10 mg/kg, ip administered 30 mins before labeled compound treatment at 37 MBq, iv measured 15 mins post injection (reference value: 0.13 +/- 0.22 %ID/g); parameters: dose 10 mg/kg, route intravenous; conditions: in vivo, 0.25 h
[39] = Biodistribution in Sprague-Dawley rat hippocampus pretreated with unlabeled compound at 0.1 mg/kg, ip administered 30 mins before labeled compound treatment at 37 MBq, iv measured 15 mins post injection (reference value: 0.22 +/- 0.22 %ID/g); parameters: dose 0.1 mg/kg; conditions: read-out: Drug uptake
Rattus norvegicus [40] = experiment: Biodistribution in Sprague-Dawley rat cortex (front) at 37 MBq, iv measured 5 mins post injection; conditions: in vivo
Rattus norvegicus [41] = experiment: Biodistribution in Sprague-Dawley rat cortex (front) at 37 MBq, iv measured 60 mins post injection; conditions: in vivo, 1 h
Striatum [42] = experiment: Biodistribution in Sprague-Dawley rat striatum at 37 MBq, iv measured 15 mins post injection; conditions: in vivo, 0.25 h
Rattus norvegicus [43] = experiment: Biodistribution in Sprague-Dawley rat cortex (rest) at 37 MBq, iv measured 30 mins post injection; conditions: in vivo, 0.5 h
[44] = Metabolic stability of the compound in Sprague-Dawley rat plasma assessed as compound remaining at 37 MBq, iv measured after 15 mins; conditions: read-out: Stability
Blood [45] = experiment: Biodistribution in Sprague-Dawley rat blood at 37 MBq, iv measured 15 mins post injection; conditions: in vivo, 0.25 h
Rattus norvegicus [46] = experiment: Biodistribution in Sprague-Dawley rat cortex (front) pretreated with unlabeled compound at 10 mg/kg, ip administered 30 mins before labeled compound treatment at 37 MBq, iv measured 15 mins post infection (reference value: 0.42 +/- 0.04%ID/g); parameters: dose 10 mg/kg; conditions: in vivo, 0.25 h
Brain [47] = experiment: Biodistribution in Sprague-Dawley rat rest of brain at 37 MBq, iv measured 5 mins post injection; conditions: in vivo
Striatum [48] = experiment: Biodistribution in Sprague-Dawley rat striatum at 37 MBq, iv measured 5 mins post injection; conditions: in vivo
Blood [49] = experiment: Biodistribution in Sprague-Dawley rat blood pretreated with unlabeled compound at 5 mg/kg, ip administered 30 mins before labeled compound treatment at 37 MBq, iv measured 15 mins post injection (0.11 +/- 0.01 %ID/g); parameters: dose 5 mg/kg; conditions: in vivo, 0.25 h
Cerebellum [50] = experiment: Biodistribution in Sprague-Dawley rat cerebellum at 37 MBq, iv measured 5 mins post injection; conditions: in vivo
Rattus norvegicus [51] = experiment: Biodistribution in Sprague-Dawley rat cortex (front) pretreated with unlabeled compound at 5 mg/kg, ip administered 30 mins before labeled compound treatment at 37 MBq, iv measured 15 mins post infection (reference value: 0.42 +/- 0.04%ID/g); parameters: dose 5 mg/kg; conditions: in vivo, 0.25 h

Drug uptake (Rattus norvegicus [1]): 0.14 % ID/g
tissue uptake at 0.25 h [2]: 0.09 %ID/g
Drug uptake (Blood [3]): 0.11 % ID/g
tissue uptake at 0.25 h [4]: 0.27 %ID/g
Drug uptake (Cerebellum [5]): 0.26 % ID/g
Drug uptake (Hippocampus [6]): 0.24 % ID/g
Drug uptake (Brain [7]): 0.22 % ID/g
Drug uptake (Brain [8]): 0.27 % ID/g
tissue uptake at 0.25 h [9]: 0.12 %ID/g
tissue uptake at 0.25 h [10]: 0.22 %ID/g
Drug uptake (Striatum [11]): 0.15 % ID/g
Drug metabolism (Plasma): Active
tissue uptake at 0.25 h [12]: 0.16 %ID/g
Drug uptake (Blood [13]): 0.08 % ID/g
tissue uptake at 0.25 h [14]: 0.08 %ID/g
Drug uptake (Rattus norvegicus [15]): 0.16 % ID/g
tissue uptake at 0.25 h [16]: 0.11 %ID/g
tissue uptake at 0.25 h [17]: 0.12 %ID/g
Drug uptake (Hippocampus [18]): 0.2 % ID/g
Drug uptake (Striatum [19]): 0.14 % ID/g
Drug uptake (Brain [20]): 0.09 % ID/g
Drug uptake (Cerebellum [21]): 0.13 % ID/g
remaining at 0.25 h [22]: > 99%
Drug uptake (Brain [23]): 0.09 % ID/g
Drug uptake (Striatum [24]): 0.06 % ID/g
Drug uptake (Blood [25]): 0.14 % ID/g
Drug uptake (Hippocampus [26]): 0.09 % ID/g
Drug uptake (Hippocampus [27]): 0.29 % ID/g
Drug uptake (Brain [28]): 0.11 % ID/g
Drug uptake (Rattus norvegicus [29]): 0.45 % ID/g
Drug uptake (Rattus norvegicus [30]): 0.53 % ID/g
Drug uptake (Rattus norvegicus [31]): 0.44 % ID/g
Drug uptake (Rattus norvegicus [32]): 0.11 % ID/g
Drug uptake (Blood [33]): 0.11 % ID/g
Drug uptake (Rattus norvegicus [34]): 0.46 % ID/g
Drug uptake (Cerebellum [35]): 0.34 % ID/g
tissue uptake at 0.25 h [36]: 0.1 %ID/g
Drug uptake (Rattus norvegicus [37]): 0.36 % ID/g
Drug uptake (Striatum [38]): 0.08 % ID/g
tissue uptake at 0.25 h [39]: 0.17 %ID/g
Drug uptake (Rattus norvegicus [40]): 0.47 % ID/g
Drug uptake (Rattus norvegicus [41]): 0.21 % ID/g
Drug uptake (Striatum [42]): 0.21 % ID/g
Drug uptake (Rattus norvegicus [43]): 0.37 % ID/g
remaining at 0.25 h [44]: 71%
Drug uptake (Blood [45]): 0.15 % ID/g
Drug uptake (Rattus norvegicus [46]): 0.13 % ID/g
Drug uptake (Brain [47]): 0.25 % ID/g
Drug uptake (Striatum [48]): 0.26 % ID/g
Drug uptake (Blood [49]): 0.12 % ID/g
Drug uptake (Cerebellum [50]): 0.36 % ID/g
Drug uptake (Rattus norvegicus [51]): 0.16 % ID/g
SMILES: [11CH3]Oc1ncccc1-c1cccc2c(N)c3c(nc12)CN(C1CCC1)C3=O
